Where a name gives a salt, the structure may show the parent alone.
Tests used:
Type in all cases: physicochemical
[1] = Hygroscopicity of the solid form
[2] = Thermal stability of the crystalline form on heating
[3] = Stability of the crystalline form versus relative humidity

In the case of C=C1CC[C@H]2[C@@H]3[C@@H](O)[C@H](O)C4C[C@@H](N)CC[C@]4(C)[C@H]3CC[C@]12C (stereo partly drawn) [acetate salt, 3-beta-amino-17-methylene-androstane-6-alpha,7-beta-diol, reference compound], the hygroscopicity [1] was “hygroscopic”.
With C=C1CCC2C3C(CC[C@]12C)[C@@]1(C)CC[C@H](N)CC1[C@@H](O)[C@@H]3O.Cl (stereo partly drawn) [form A, 3-beta-amino-17-methylene-androstane-6-alpha,7-beta-diol hydrochloride] the “temperature above which the form decomposes completely” value [2] was “above 280 °C”, the “temperature at which the form begins to deteriorate chemically” value [2] was “around 240 °C” and the hygroscopicity [1] was “absence of hygroscopicity”. For the same compound, the “form conversion under high relative humidity” value ([3]; left for 3 days under a relative humidity above 95%) was “converts to form B”.
With C=C1CCC2C3C(CC[C@]12C)[C@@]1(C)CC[C@H](N)CC1[C@@H](O)[C@@H]3O.Cl (stereo partly drawn) [form B, 3-beta-amino-17-methylene-androstane-6-alpha,7-beta-diol hydrochloride] the “relative humidity range in which the crystalline form is stable” value ([3]; crystalline powder, hydrochloride) was “above 50 % RH”.
With C=C1CCC2C3C(CC[C@]12C)[C@@]1(C)CC[C@H](N)CC1[C@@H](O)[C@@H]3O.Cl (stereo partly drawn) [form C, 3-beta-amino-17-methylene-androstane-6-alpha,7-beta-diol hydrochloride] the “temperature above which the form turns into anhydride D by heating” value ([2]; conversion of mono-hydrate to anhydrous form D) was “above 60 °C”.
